Laboratory results from ChEMBL document CHEMBL5376011, “Discovery of Anti-Hypercholesterolemia Agents Targeting LXRα from Marine Microorganism-Derived Natural Products” (J Nat Prod, 2024).
Calls of active or inactive are those of the source.

Legend:
[1] = molecular target: T1, Oxysterols receptor LXR-alpha (Homo sapiens) (UniProt Q13133); experiment: Agonist activity at LXRalpha in human HepG2 cells assessed as upregulation of ABCA1 protein expression level at 25 uM incubated for 24 hrs by Western blot analysis; format: cell-based; details: filed as agonist
T1 sequence (whole entry): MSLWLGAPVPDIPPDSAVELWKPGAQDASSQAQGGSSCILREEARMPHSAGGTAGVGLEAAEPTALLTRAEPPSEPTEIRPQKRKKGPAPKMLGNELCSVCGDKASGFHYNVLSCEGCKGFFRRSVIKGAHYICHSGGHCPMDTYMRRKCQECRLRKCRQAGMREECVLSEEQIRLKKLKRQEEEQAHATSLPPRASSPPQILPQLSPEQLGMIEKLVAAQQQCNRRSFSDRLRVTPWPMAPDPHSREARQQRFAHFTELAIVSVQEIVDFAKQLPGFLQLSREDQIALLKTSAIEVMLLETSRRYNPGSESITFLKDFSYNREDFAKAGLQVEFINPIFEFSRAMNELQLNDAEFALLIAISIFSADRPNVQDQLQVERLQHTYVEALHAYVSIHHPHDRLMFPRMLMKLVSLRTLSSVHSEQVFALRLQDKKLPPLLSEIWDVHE

[2] = molecular target: T1, Oxysterols receptor LXR-alpha (Homo sapiens); experiment: Agonist activity at LXRalpha in human HepG2 cells assessed as upregulation of ABCA1 mRNA expression by measuring fold change at 25 uM incubated for 24 hrs by RT-qPCR analysis; format: cell-based; details: filed as agonist
[3] = molecular target: T1, Oxysterols receptor LXR-alpha (Homo sapiens); experiment: Agonist activity at LXRalpha in human HepG2 cells assessed as upregulation of CYP7A1 mRNA expression by measuring fold change at 25 uM incubated for 24 hrs by RT-qPCR analysis; format: cell-based; details: filed as agonist
HepG2 [4] = experiment: Effect on LXRbeta mRNA expression in human HepG2 cells at 25 uM incubated for 24 hrs by RT-qPCR analysis; format: functional, cell-based
HepG2 [5] = experiment: Effect on ABCG1 mRNA expression in human HepG2 cells at 25 uM incubated for 24 hrs by RT-qPCR analysis; format: functional, cell-based
[6] = Cytotoxicity against human HepG2 cells assessed as reduction in cell viability incubated for 24 hrs by CCK8 assay; format: toxicity, cell-based
[7] = molecular target: T1, Oxysterols receptor LXR-alpha (Homo sapiens); experiment: Agonist activity at LXRalpha in human HepG2 cells assessed as upregulation of CYP7A1 protein expression level at 25 uM incubated for 24 hrs by Western blot analysis; format: cell-based; details: filed as agonist
[8] = molecular target: T2, Oxysterols receptor LXR-alpha (Homo sapiens, UniProt Q13133); experiment: Binding affinity to full length human LXRalpha assessed as dissociation constant by SPR analysis
T2 sequence (Q13133 whole entry): T1 sequence (whole entry)

HepG2 [9] = experiment: Improvement of lipid metabolism in palmitic acid and oleic acid induced human HepG2 cell model of hepatic steatosis assessed as reduction in lipid droplets at 25 uM preincubated with palmitic acid and oleic acid for 48 hrs followed by compound addition and measured after 24 hrs by Oil Red O staining based analysis; format: functional
HepG2 [10] = experiment: Improvement of lipid metabolism in palmitic acid and oleic acid induced human HepG2 cell model of hepatic steatosis assessed as reduction in total cellular cholesterol level at 25 uM preincubated with palmitic acid and oleic acid for 48 hrs followed by compound addition and measured after 24 hrs; format: functional, cell-based
HepG2 [11] = experiment: Improvement of lipid metabolism in palmitic acid and oleic acid induced human HepG2 cell model of hepatic steatosis assessed as reduction in triglyceride level at 25 uM preincubated with palmitic acid and oleic acid for 48 hrs followed by compound addition and measured after 24 hrs; format: functional, cell-based
Mus musculus [12] = experiment: Antihypercholesterolemic activity against high cholesterol diet fed C57BL/6J mouse assessed as improvement in hepatocyte degeneration at 300 microg/kg, ip administered every 2 days for 15 days by H&E staining based analysis; format: functional, organism-based; details: dose 300.0 µg/kg, time 15.0 day
Mus musculus [13] = experiment: Antihypercholesterolemic activity against high cholesterol diet fed C57BL/6J mouse assessed as reduction of fine vacuoles in the cytoplasm at 300 microg/kg, ip administered every 2 days for 15 days by H&E staining based analysis; format: functional, organism-based; details: dose 300.0 µg/kg, time 15.0 day
Mus musculus [14] = experiment: Antihypercholesterolemic activity against high cholesterol diet fed C57BL/6J mouse assessed as reduction in hepatocyte lysis necrosis at 300 microg/kg, ip administered every 2 days for 15 days by H&E staining based analysis; format: functional, organism-based; details: dose 300.0 µg/kg, time 15.0 day
Mus musculus [15] = experiment: Antihypercholesterolemic activity against high cholesterol diet fed C57BL/6J mouse assessed as improvement in hepatocyte liposis at 300 microg/kg, ip administered every 2 days for 15 days by H&E staining based analysis; format: functional, organism-based; details: dose 300.0 µg/kg, time 15.0 day
Mus musculus [16] = experiment: Antihypercholesterolemic activity against high cholesterol diet fed C57BL/6J mouse assessed as improvement in hepatocyte degeneration at 300 microg/kg, ip administered every 2 days for 15 days by Oil red staining based analysis; format: functional, organism-based; details: dose 300.0 µg/kg, time 15.0 day
Mus musculus [17] = experiment: Antihypercholesterolemic activity against high cholesterol diet fed C57BL/6J mouse assessed as reduction of fine vacuoles in the cytoplasm at 300 microg/kg, ip administered every 2 days for 15 days by Oil red staining based analysis; format: functional, organism-based; details: dose 300.0 µg/kg, time 15.0 day
Mus musculus [18] = experiment: Antihypercholesterolemic activity against high cholesterol diet fed C57BL/6J mouse assessed as reduction in hepatocyte lysis necrosis at 300 microg/kg, ip administered every 2 days for 15 days by Oil red staining based analysis; format: functional, organism-based; details: dose 300.0 µg/kg, time 15.0 day
Mus musculus [19] = experiment: Antihypercholesterolemic activity against high cholesterol diet fed C57BL/6J mouse assessed as improvement in hepatocyte liposis at 300 microg/kg, ip administered every 2 days for 15 days by Oil red staining based analysis; format: functional, organism-based; details: dose 300.0 µg/kg, time 15.0 day
Mus musculus [20] = experiment: Antihypercholesterolemic activity against high cholesterol diet fed C57BL/6J mouse assessed as reduction in degree of hepatic steatosis at 300 microg/kg, ip administered every 2 days for 15 days by Oil red staining based analysis; format: functional, organism-based; details: dose 300.0 µg/kg, time 15.0 day
Mus musculus [21] = experiment: Antihypercholesterolemic activity against high cholesterol diet fed C57BL/6J mouse assessed as reduction in degree of hepatic steatosis at 300 microg/kg, ip administered every 2 days for 15 days by H&E staining based analysis; format: functional, organism-based; details: dose 300.0 µg/kg, time 15.0 day
Mus musculus [22] = experiment: Antihypercholesterolemic activity against high cholesterol diet induced C57BL/6J mouse assessed as reduction in serum alanine aminotransferase level at 300 microg/kg, ip administered every 2 days for 15 days; format: functional, organism-based; details: dose 300.0 µg/kg, time 15.0 day
Mus musculus [23] = experiment: Antihypercholesterolemic activity against high cholesterol diet induced C57BL/6J mouse assessed as reduction in serum aspartate aminotransferase level at 300 microg/kg, ip administered every 2 days for 15 days; format: functional, organism-based; details: dose 300.0 µg/kg, time 15.0 day
Mus musculus [24] = experiment: Antihypercholesterolemic activity against high cholesterol diet induced C57BL/6J mouse assessed as reduction in total cholesterol level in plasma at 300 microg/kg, ip administered every 2 days for 15 days; format: functional, organism-based; details: dose 300.0 µg/kg, time 15.0 day
Mus musculus [25] = experiment: Antihypercholesterolemic activity against high cholesterol diet induced C57BL/6J mouse assessed as reduction in plasma low-density lipoprotein cholesterol level at 300 microg/kg, ip administered every 2 days for 15 days; format: functional, organism-based; details: dose 300.0 µg/kg, time 15.0 day
Mus musculus [26] = experiment: Antihypercholesterolemic activity against high cholesterol diet induced C57BL/6J mouse assessed as reduction in hepatocyte damage at 300 microg/kg, ip administered every 2 days for 15 days; format: functional, organism-based; details: dose 300.0 µg/kg, time 15.0 day
Mus musculus [27] = experiment: Antihypercholesterolemic activity against high cholesterol diet fed LXRalpha knockout C57BL/6J mouse assessed as improvement in hepatocellular degeneration at 300 microg/kg, ip administered every 2 days for 15 days by H&E staining based analysis; format: functional, organism-based; details: dose 300.0 µg/kg, time 15.0 day
Mus musculus [28] = experiment: Antihypercholesterolemic activity against high cholesterol diet fed LXRalpha knockout C57BL/6J mouse assessed as improvement in hepatic steatosis at 300 microg/kg, ip administered every 2 days for 15 days by H&E staining based analysis; format: functional, organism-based; details: dose 300.0 µg/kg, time 15.0 day
Mus musculus [29] = experiment: Antihypercholesterolemic activity against high cholesterol diet fed LXRalpha knockout C57BL/6J mouse assessed as improvement in liver lipid droplet accumulation at 300 microg/kg, ip administered every 2 days for 15 days by H&E staining based analysis; format: functional, organism-based; details: dose 300.0 µg/kg, time 15.0 day
Mus musculus [30] = experiment: Antihypercholesterolemic activity against high cholesterol diet fed LXRalpha knockout C57BL/6J mouse assessed as improvement in hepatocellular degeneration at 300 microg/kg, ip administered every 2 days for 15 days by Oil red staining based analysis; format: functional, organism-based; details: dose 300.0 µg/kg, time 15.0 day
Mus musculus [31] = experiment: Antihypercholesterolemic activity against high cholesterol diet fed LXRalpha knockout C57BL/6J mouse assessed as improvement in hepatic steatosis at 300 microg/kg, ip administered every 2 days for 15 days by Oil red staining based analysis; format: functional, organism-based; details: dose 300.0 µg/kg, time 15.0 day
Mus musculus [32] = experiment: Antihypercholesterolemic activity against high cholesterol diet fed LXRalpha knockout C57BL/6J mouse assessed as improvement in liver lipid droplet accumulation at 300 microg/kg, ip administered every 2 days for 15 days by Oil red staining based analysis; format: functional, organism-based; details: dose 300.0 µg/kg, time 15.0 day
Mus musculus [33] = experiment: Antihypercholesterolemic activity against high cholesterol diet fed LXRalpha knockout C57BL/6J mouse assessed as reduction in serum alanine aminotransferase level at 300 microg/kg, ip administered every 2 days for 15 days; format: functional, organism-based; details: dose 300.0 µg/kg, time 15.0 day
Mus musculus [34] = experiment: Antihypercholesterolemic activity against high cholesterol diet fed LXRalpha knockout C57BL/6J mouse assessed as reduction in serum aspartate aminotransferase level at 300 microg/kg, ip administered every 2 days for 15 days; format: functional, organism-based; details: dose 300.0 µg/kg, time 15.0 day
Mus musculus [35] = experiment: Antihypercholesterolemic activity against high cholesterol diet fed LXRalpha knockout C57BL/6J mouse assessed as reduction in serum total cholesterol level at 300 microg/kg, ip administered every 2 days for 15 days; format: functional, organism-based; details: dose 300.0 µg/kg, time 15.0 day
Mus musculus [36] = experiment: Antihypercholesterolemic activity against high cholesterol diet fed LXRalpha knockout C57BL/6J mouse assessed as reduction in serum triglycerides level at 300 microg/kg, ip administered every 2 days for 15 days; format: functional, organism-based; details: dose 300.0 µg/kg, time 15.0 day
Mus musculus [37] = experiment: Antihypercholesterolemic activity against high cholesterol diet fed LXRalpha knockout C57BL/6J mouse assessed as reduction in serum low density lipoprotein cholesterol level at 300 microg/kg, ip administered every 2 days for 15 days; format: functional, organism-based; details: dose 300.0 µg/kg, time 15.0 day
Mus musculus [38] = experiment: Antihypercholesterolemic activity against high cholesterol diet fed LXRalpha knockout C57BL/6J mouse assessed as reduction in serum high density lipoprotein cholesterol level at 300 microg/kg, ip administered every 2 days for 15 days; format: functional, organism-based; details: dose 300.0 µg/kg, time 15.0 day
Mus musculus [39] = experiment: Antihypercholesterolemic activity against high cholesterol diet fed LXRalpha knockout C57BL/6J mouse assessed as upregulation in ABCA1 protein level at 300 microg/kg, ip administered every 2 days for 15 days by Western blot analysis; format: functional, organism-based; details: dose 300.0 µg/kg, time 15.0 day
Mus musculus [40] = experiment: Antihypercholesterolemic activity against high cholesterol diet fed LXRalpha knockout C57BL/6J mouse assessed as upregulation in CYP7A1 protein level at 300 microg/kg, ip administered every 2 days for 15 days by Western blot analysis; format: functional, organism-based; details: dose 300.0 µg/kg, time 15.0 day
Mus musculus [41] = experiment: Antihypercholesterolemic activity against high cholesterol diet fed C57BL/6J mouse assessed as reduction in SREBP1 protein level at 300 microg/kg, ip administered every 2 days for 15 days by Western blot analysis; format: functional, organism-based; details: dose 300.0 µg/kg, time 15.0 day
Mus musculus [42] = experiment: Antihypercholesterolemic activity against high cholesterol diet fed C57BL/6J mouse assessed as reduction in FASN protein level at 300 microg/kg, ip administered every 2 days for 15 days by Western blot analysis; format: functional, organism-based; details: dose 300.0 µg/kg, time 15.0 day
Mus musculus [43] = experiment: Antihypercholesterolemic activity against high cholesterol diet fed C57BL/6J mouse assessed as reduction in SCD1 protein level at 300 microg/kg, ip administered every 2 days for 15 days by Western blot analysis; format: functional, organism-based; details: dose 300.0 µg/kg, time 15.0 day

COc1ccc2c(C[C@@H]3NC(=O)[C@@H]4CCCN4C3=O)c(CC=C(C)C)[nH]c2c1 [TRYPROSTATIN A]
0.0102 µM: Kd [8]
> 50 µM: IC50 at 24 h [6]
5.01: fold change (FC) [3]
2.05: fold change (FC) [2]
active: Activity [1] | Activity [7] | Activity (HepG2 [9]) | Activity (HepG2 [10]) | Activity (HepG2 [11]) | Activity (Mus musculus [12]) | Activity (Mus musculus [13]) | Activity (Mus musculus [14]) | Activity (Mus musculus [15]) | Activity (Mus musculus [16]) | Activity (Mus musculus [17]) | Activity (Mus musculus [18]) | Activity (Mus musculus [19]) | Activity (Mus musculus [20]) | Activity (Mus musculus [21]) | Activity (Mus musculus [22]) | Activity (Mus musculus [23]) | Activity (Mus musculus [24]) | Activity (Mus musculus [25]) | Activity (Mus musculus [26]) | Activity (Mus musculus [27]) | Activity (Mus musculus [28]) | Activity (Mus musculus [29]) | Activity (Mus musculus [30]) | Activity (Mus musculus [31]) | Activity (Mus musculus [32]) | Activity (Mus musculus [41]) | Activity (Mus musculus [42]) | Activity (Mus musculus [43])
inactive: Activity (HepG2 [4]) | Activity (HepG2 [5]) | Activity (Mus musculus [33]) | Activity (Mus musculus [34]) | Activity (Mus musculus [35]) | Activity (Mus musculus [36]) | Activity (Mus musculus [37]) | Activity (Mus musculus [38]) | Activity (Mus musculus [39]) | Activity (Mus musculus [40])
